Values joined by “and” are separate entries in the source; they are usually repeats but may differ in a detail not shown here. Identical values can stand only once. Like-named read-outs stand apart in the source and are kept apart here. Marks after values point to notes of the source that are not given here.
Experiments:
Format in all cases: cell-based
MDCK cells = experiment: MTT cytotoxicity assay on MDCK cells; settings: 100 µmol/L, 24 h incubation, mean ± SD of three replicates; for inhibition at 100 µM: Canis lupus familiaris, read-out: Growth Inhibition Rate (%)
Method: First, we used the MTT method to examine the cytotoxicity of the compounds (1–12) on MDCK cells at a concentration of 100 µmol/L, and the results are shown in Table 5.
Each compound was evaluated for cytotoxicity on DMCK cells using MTT assays. A 96-well plate containing 1 × 10^4 cells per well was seeded with logarithmic growth-phase DMCK cells, which were then cultured for 24 h in a cell culture incubator. After that, the culture medium was changed to one that included medication (100 µmol/L for the treatment groups, 100 µmol/L for the control group, or 100 µmol/L for the positive control group). In total, 100 µL of the appropriate solution was added to each well, and they were then incubated for a further 24 h. After that, culture media were taken out and changed for a DMEM solution that included 20 µL of MTT (5 mg/mL). After incubating for 4 h, the liquid in each well was removed and replaced with 150 µL of DMSO, which was shaken for 10 min to ensure thorough mixing. The absorbance at 490 nm was measured to determine the optical density (OD) of each well. The cell growth inhibition rate was calculated as follows: cell growth inhibition rate (%) = (ODBlank − ODExperimental)/ODBlank × 100%.

[1] = system: Na^+ transport in MDCK cells; experiment: In vitro diuretic activity assay: Na+ transport across MDCK cells in Transwell chamber; settings: for inhibition at 100 µM: Canis lupus familiaris; for inhibition at 100 µM / Transport Inhibition Rate (%) Na^+: compounds 100 µmol/L, hydrochlorothiazide 200 µmol/L, mean ± SD of three replicates; for Diuretic activity (overall, in words): in vitro Na^+ and Cl^− transport bioassays
Method: (§1) Generally, the transport of Na^+ and Cl^− plays an essential role in glomerular filtration and tubular reabsorption.
(§2) Log-phase MDCK cells were seeded in the upper chambers of Transwell plates (4 × 10^4 cells/well), and 800 µL of complete culture medium was added to the lower chambers. After 24 h of incubation at 37 ℃, the electrical resistance of the upper chamber cells was measured one by one (R = (Rcell − Rblank) × 0.04π). When the electrical resistance of the upper chamber cells reached ≥ 300 Ω cm^2, the upper chamber medium was removed and replaced with the drug solution. The blank group (given normal saline), experimental group (1, 4–12, 100 µmol/L), and hydrochlorothiazide group (200 µmol/L) were set, and each well was treated with 200 µL of the corresponding solution. The cells were then further incubated for 24 h. After that, the upper and lower chamber fluids were removed, and 200 µL of NaCl solution (21 mg/mL) was added to the upper chamber, while 800 µL of DMEM was added to the lower chamber for continued incubation. At 1, 2, and 3 h, 50 µL of the lower chamber fluid was taken, and the OD values were measured using Na^+ and Cl^− detection kits. The transport inhibition rate (%) was calculated as follows: transport inhibition rate (%) = (ODblank − ODexperimental)/ODblank × 100%.

[2] = system: Cl^− transport in MDCK cells; experiment: In vitro diuretic activity assay: Cl− transport across MDCK cells in Transwell chamber; settings: for inhibition at 100 µM: Canis lupus familiaris, read-out: Transport Inhibition Rate (%) Cl^−; for Inhibitory activity on Cl^− transport compared to blank group (in words): 100 µmol/L, significance vs blank group
Method: as §1, §2

[3] = MDCK, read-out: Transport Inhibition Rate (%) Na^+, MDCK Transwell
[4] = MDCK Transwell, read-out: Transport Inhibition Rate (%) Na^+
[5] = MDCK Transwell, compounds 100 µmol/L, hydrochlorothiazide 200 µmol/L, mean ± SD of three replicates

Molecule | inhibition at 100 µM (MDCK cells) | inhibition at 100 µM [1, 3] | Transport Inhibition Rate (%) Na^+ ([1]; MDCK Transwell) | inhibition at 100 µM ([2]; MDCK) | further results
O=c1c(O)c(-c2ccc(O)cc2)oc2cc(O)cc(O)c12 [Compound 11, kaempferol] | < 0% | > 20% | 28.81± 1.04 ^e % | 27.7 ± 1.18% | Na^+ transport suppression rate at 3 h compared with hydrochlorothiazide (in words) ([1]; 3 h, Figure 3): exceeds that of hydrochlorothiazide; Diuretic activity (overall, in words) [1]: potent diuretic activity
O=c1c(O[C@@H]2O[C@H](CO)[C@@H](O)[C@H](O)[C@H]2O)c(-c2ccc(O)c(O)c2)oc2cc(O)cc(O)c12 [Compound 9, isoquercitrin] | < 0% | 6.22 ± 0.53% |  | -8.36 ± 2.6% | 
Cc1cc(O)ccc1O[C@H]1O[C@@H](CO)[C@H](O[C@H]2O[C@@H](CO)[C@H](O)[C@@H](O)[C@@H]2O)[C@@H](O)[C@@H]1O [Compound 2, 4′-O-β-D-glucopyranosyl-isohomoarbutin] | 29.48 ± 0.12% |  |  |  | 
O=c1c(O[C@@H]2O[C@H](CO)[C@H](O)[C@H](O)[C@H]2O)c(-c2ccc(O)c(O)c2)oc2cc(O)cc(O)c12 [Compound 10, hyperoside] | < 0% | 1.82 ± 0.81% |  | -13.2 ± 1.89% | 
C/C(=C\Cc1c(O)ccc(O[C@H]2O[C@@H](CO)[C@H](O)[C@@H](O)[C@@H]2O)c1C)CO [Compound 5, 3-[(E)-4-hydroxy-3-methyl-2-butenyl]-4-hydroxy-2-methylphenyl-O-β-D-glucopyranoside] | 4.08 ± 0.03% |  |  |  | inhibition at 100 µM [1, 4]: 7.61 ± 0.71%; Inhibitory activity on Cl^− transport compared to blank group (in words) [2]: good inhibitory activity; inhibition at 100 µM [2, 5]: 4.57 ± 0.65%
Cc1cc(O)c(-c2cc(O[C@@H]3O[C@H](CO)[C@@H](O)[C@H](O)[C@H]3O)c(C)cc2O)cc1O[C@@H]1O[C@H](CO)[C@@H](O)[C@H](O)[C@H]1O [Compound 3, 5-5′-dehydro-di (2-methyl-4-hydroxy-phenyl-1-O-β-D-glucopyranoside)] | 23.31 ± 0.13% |  |  |  | 
NS(=O)(=O)c1cc2c(cc1Cl)NCNS2(=O)=O [Hyd, hydrochlorothiazide, reference compound] | < 0% |  | 39.74 ± 0.64 ^e % |  | Na^+ transport inhibition rate at 1 h ([1]; Figure 3): 27.91%; Transport Inhibition Rate (%) Cl^− [2, 5]: 23.42 ± 0.87 ^e %
(1R,3R,4R)-3-methylcyclohexanol β-D-glucopyranoside [Compound 4] |  |  | higher than 20% and 21.13 ± 0.89 ^e % |  | Growth Inhibition Rate (%) (MDCK cells): 4.89 ± 0.05%; Diuretic activity (overall, in words) [1]: potent diuretic activity; Transport Inhibition Rate (%) Cl^− [2, 5]: 12.23 ± 0.18 ^e %
Cc1cc(O)ccc1O[C@H]1O[C@@H](CO)[C@H](O)[C@@H](O[C@H]2O[C@@H](CO)[C@H](O)[C@@H](O)[C@@H]2O)[C@@H]1O [Compound 1, 3′-O-β-D-glucopyranosyl-isohomoarbutin] | 4.89 ± 0.05% |  |  |  | inhibition at 100 µM [1, 4]: -11.7 ± 1.14%; inhibition at 100 µM [2, 5]: 9.44 ± 0.78%
O=c1c(O)c(-c2ccc(O)c(O)c2)oc2cc(O)cc(O)c12 [Compound 7, quercetin] | < 0% | > 20% | 35.95 ± 1.42 ^e % | 20.7 ± 0.74% | Na^+ transport inhibition rate at 1 h ([1]; Figure 3): more than 30.24%; Diuretic activity (overall, in words) [1]: potent diuretic activity; Cl^− transport inhibition rate at peak, second hour ([2]; second hour (peak), Figure 4): higher than 20%
O=c1c(O[C@@H]2O[C@@H](CO)[C@H](O)[C@H]2O)c(-c2ccc(O)cc2)oc2cc(O)cc(O)c12 [Compound 12, juglanin] | < 0% | 14.2 ± 0.69% |  | 3.27 ± 0.31% | Inhibitory activity on Cl^− transport compared to blank group (in words) [2]: general inhibitory activity
C[C@@H]1O[C@@H](Oc2c(-c3ccc(O)c(O)c3)oc3cc(O)cc(O)c3c2=O)[C@H](O)[C@H](O)[C@H]1O [Compound 8, quercitrin] | < 0% | 18.5 ± 1.02% |  | 0.65 ± 1.45% | 
Cc1cc(O)ccc1O[C@@H]1O[C@H](CO)[C@@H](O)[C@H](O)[C@H]1O [Compound 6, isohomoarbutin] | < 0% |  |  |  | inhibition at 100 µM [1, 4]: 10.2 ± 1.24%; inhibition at 100 µM [2, 5]: 12.2 ± 1.33%
